{
  "source": "patent US7902367B2",
  "about": "“Cyclic amino benzoic acid derivative” (Kyorin Pharmaceutical Co., Ltd., priority 2004, dated 2011)",
  "data": [
    {"target": "T1, human PPARα (Homo sapiens, UniProt Q07869)", "T1 construct": "expressed in transfected cells; host or cells: CHO-K1 cells", "T1 sequence (Q07869 239-466 limits assumed)": "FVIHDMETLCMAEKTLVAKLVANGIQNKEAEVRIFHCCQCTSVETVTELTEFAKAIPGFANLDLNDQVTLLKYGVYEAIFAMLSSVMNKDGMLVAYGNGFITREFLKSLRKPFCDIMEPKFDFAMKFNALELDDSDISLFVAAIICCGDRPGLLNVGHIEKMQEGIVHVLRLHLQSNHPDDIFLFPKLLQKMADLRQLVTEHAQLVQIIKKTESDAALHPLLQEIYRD", "test": "Activation of transcription of human PPARα (Gal4-PPARα LBD luciferase reporter assay in CHO-K1 cells)", "type": "cell-based", "conditions": "CHO-K1 cells cotransfected with Gal4 DNA-binding domain/human PPARα ligand-binding domain receptor plasmid, firefly luciferase reporter and renilla internal standard; 20 hours at 37° C.", "description": "Activation of Transcription of Human Peroxisome Proliferator-Activated Receptor (PPAR) α\nCHO-K1 cells cultured in Ham's F12 medium supplemented with 10% fetal calf serum were cotransfected with the following plasmids: A receptor plasmid encoding a fusion protein consisting of the DNA-binding domain of yeast transcription factor Gal4 fused to the ligand-binding domain of human PPARα (Biochemistry, 1993, 32, 5598), a reporter plasmid (STRATAGENE, firefly luciferase reporter plasmid), and a renilla luciferase plasmid for internal standard (Promega). The cotransfection was performed over a 2-hour period by using Lipofectamine (INVITROGEN) in the absence of serum. Subsequently, a test compound was added in Ham's F12 medium supplemented with 10% defatted bovine serum. The cells were then incubated at 37° C. for 20 hours. The activity of each luciferase was then determined and corrected for internal standard.", "units": {"EC50": "nM"}, "values": [
      {"smiles": "Cc1nc(-c2ccc(Cl)cc2)sc1C(=O)NCC1CCCN(c2ccccc2C(=O)O)C1", "note": "(stereo not shown) [Example 18, 2-[3-[[2-(4-Chlorophenyl)-4-methylthiazol-5-yl]carbonylaminomethyl]piperidin-1-yl]benzoic acid]", "EC50": 65},
      {"smiles": "Cc1nc(-c2ccc(Cl)cc2)sc1C(=O)NCC1CCCN(c2cccc(C(=O)O)c2)C1", "note": "(stereo not shown) [Example 19]", "EC50": 970},
      {"smiles": "Cc1nc(-c2ccc(Cl)cc2)sc1CNC(=O)C1CCCN(c2ccccc2C(=O)O)C1", "note": "(stereo not shown) [Example 20]", "EC50": 1360},
      {"smiles": "Cc1nc(-c2ccc(Cl)cc2)sc1COCC1CCCN(c2ccccc2C(=O)O)C1", "note": "(stereo not shown) [Example 22]", "EC50": 160},
      {"smiles": "Cc1nc(-c2ccc(Cl)cc2)sc1COCC1CCCN(c2cccc(C(=O)O)c2)C1", "note": "(stereo not shown) [Example 24]", "EC50": 1540},
      {"smiles": "Cc1nc(-c2ccc(Cl)cc2)sc1COC1CCCN(c2cccc(C(=O)O)c2)C1", "note": "(stereo not shown) [Example 25]", "EC50": 560},
      {"smiles": "Cc1nc(-c2ccc(Cl)cc2)sc1C(=O)NC1CCCN(c2cccc(C(=O)O)c2)C1", "note": "(stereo not shown) [Example 32]", "EC50": 20}
    ]}
  ]
}
